Results on 1 compound are retold here after US12649723B2, “Carbonohydrazonoyl dicyanide compounds comprising 2 or more aryl or heteroaryl connected via linker and use thereof” (KOREA INSTITUTE OF SCIENCE AND TECHNOLOGY, priority 2020, dated 2026).

For one data set, the target named is T1, CYP2D6 (Homo sapiens, UniProt P10635).
T1 construct: human liver microsomes (0.25 mg/mL); from tissue; host or cells: human liver microsomes
The data set can be described thus: Inhibitory effect on CYP coenzyme activity, human liver microsomes. Format: in vitro ADME. Particulars: compound 10 μM; human liver microsomes 0.25 mg/mL; substrate dextromethorphan; 15 minutes. Put shortly: (§1)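 Human liver microsomes (0.25 mg/mL, pH 7.4) were incubated with a substrate cocktail (10 μM diclofenac, 100 μM S-mephenytoin, 5 μM dextromethorphan, 2.5 μM midazolam) and compound at 0 or 10 μM. After 5 min preincubation at 37 °C, NADPH was added for 15 min. Metabolites were quantified by LC-MS/MS MRM.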
Background: Liver microsomes are a subcellular fraction often used to study metabolism.

The target in another data set is T2, CYP2C9 (Homo sapiens, UniProt P11712).
T2 construct: human liver microsomes (0.25 mg/mL); from tissue; host or cells: human liver microsomes
T2 sequence (P11712 whole entry): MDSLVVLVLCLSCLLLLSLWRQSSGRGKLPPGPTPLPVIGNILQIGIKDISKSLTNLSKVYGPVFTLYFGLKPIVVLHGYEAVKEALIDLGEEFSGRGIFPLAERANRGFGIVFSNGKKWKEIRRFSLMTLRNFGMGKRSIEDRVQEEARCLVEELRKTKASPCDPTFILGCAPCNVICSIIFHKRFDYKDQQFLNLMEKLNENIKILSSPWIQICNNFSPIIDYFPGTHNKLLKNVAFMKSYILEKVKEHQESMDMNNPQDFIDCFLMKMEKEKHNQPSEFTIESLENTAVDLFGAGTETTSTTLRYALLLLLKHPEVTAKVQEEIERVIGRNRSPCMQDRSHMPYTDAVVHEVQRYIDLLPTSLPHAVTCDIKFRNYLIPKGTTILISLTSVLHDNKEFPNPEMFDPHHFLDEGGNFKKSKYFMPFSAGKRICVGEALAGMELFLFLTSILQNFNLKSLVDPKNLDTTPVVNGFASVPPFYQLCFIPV
The description is as above. In kind it is in vitro ADME. The note with it: compound 10 μM; human liver microsomes 0.25 mg/mL; substrate diclofenac; 15 minutes. Put shortly:
as §1

For another data set, the target named is T3, CYP2C19 (Homo sapiens, UniProt P33261).
T3 construct: human liver microsomes (0.25 mg/mL); from tissue; host or cells: human liver microsomes
T3 sequence (P33261 whole entry): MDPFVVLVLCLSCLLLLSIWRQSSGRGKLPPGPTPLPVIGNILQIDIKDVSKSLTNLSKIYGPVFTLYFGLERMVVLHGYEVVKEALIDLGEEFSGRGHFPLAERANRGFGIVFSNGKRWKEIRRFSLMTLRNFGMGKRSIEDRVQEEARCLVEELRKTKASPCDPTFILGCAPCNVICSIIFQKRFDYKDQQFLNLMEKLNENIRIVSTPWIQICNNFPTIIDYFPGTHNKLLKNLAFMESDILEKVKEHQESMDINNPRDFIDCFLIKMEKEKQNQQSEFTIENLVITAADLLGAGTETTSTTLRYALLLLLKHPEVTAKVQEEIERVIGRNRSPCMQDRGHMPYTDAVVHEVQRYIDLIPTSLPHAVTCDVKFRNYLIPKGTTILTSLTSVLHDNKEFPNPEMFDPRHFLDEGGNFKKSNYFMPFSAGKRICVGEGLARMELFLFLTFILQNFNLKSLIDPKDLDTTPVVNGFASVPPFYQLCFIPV
Described as above. The note with it: compound 10 μM; human liver microsomes 0.25 mg/mL; substrate S-mephenytoin; 15 minutes. In kind it is in vitro ADME. Put shortly: as §1

A further data set has as its target T4, CYP3A4 (Homo sapiens, UniProt P08684).
T4 construct: human liver microsomes (0.25 mg/mL); from tissue; host or cells: human liver microsomes
Described as above. The note with it: compound 10 μM; human liver microsomes 0.25 mg/mL; substrate midazolam; 15 minutes. Format: in vitro ADME. The method, boiled down: as §1

A further data set deals with T5, CYP1A2 (Homo sapiens, UniProt P05177).
T5 construct: human liver microsomes (0.25 mg/mL); from tissue; host or cells: human liver microsomes
T5 sequence (P05177 1-516): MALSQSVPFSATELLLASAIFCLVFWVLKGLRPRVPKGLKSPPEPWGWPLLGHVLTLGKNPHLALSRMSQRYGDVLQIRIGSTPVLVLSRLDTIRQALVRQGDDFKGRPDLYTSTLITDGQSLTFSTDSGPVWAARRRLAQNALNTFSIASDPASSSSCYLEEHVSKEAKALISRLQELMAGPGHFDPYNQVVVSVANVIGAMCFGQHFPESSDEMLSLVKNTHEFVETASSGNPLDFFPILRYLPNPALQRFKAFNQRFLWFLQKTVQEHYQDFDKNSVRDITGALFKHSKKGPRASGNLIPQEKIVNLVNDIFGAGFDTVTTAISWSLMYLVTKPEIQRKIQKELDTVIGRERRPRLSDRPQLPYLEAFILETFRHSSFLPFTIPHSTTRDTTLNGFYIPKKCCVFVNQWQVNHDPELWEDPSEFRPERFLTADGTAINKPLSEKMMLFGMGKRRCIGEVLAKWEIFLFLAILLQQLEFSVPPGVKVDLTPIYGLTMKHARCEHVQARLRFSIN
The data set is described as above. In kind it is in vitro ADME. The note with it: compound 10 μM; human liver microsomes 0.25 mg/mL; substrate phenacetin; 15 minutes. Put shortly: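 Activity remaining with 10 μM test compound was determined from MRM-quantified metabolite formation. The reaction used human microsomal protein (0.25 mg/mL) in pH 7.4 buffer with a mixed five-substrate cocktail, a 5-min 37 °C preincubation, and 15 min of NADPH-supported turnover.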

A short description of data set [1]: Liver microsome stability. Format: in vitro ADME, rat. Particulars: amount of substrate remaining; compound 1 μM, 30 minutes, 37° C., NADPH. The method, boiled down:
(§2)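 Human, dog, rat and mouse liver microsomes (0.25 mg/mL) with 1 μM compound in 0.1 M phosphate buffer pH 7.4, preincubated 5 min at 37° C, then incubated 30 min at 37° C with NADPH-generating system. Reaction stopped with acetonitrile containing internal standard; remaining parent quantified by LC-MS/MS.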

A further data set deals with T6, tau protein (Homo sapiens, UniProt P10636).
T6 construct: fused on or other part: Split fluorescent-protein halves for BiFC are fused to tau; In the published tau-BiFC line these are Venus VN173 and VC155
T6 sequence (P10636 2-441 isoform P10636-8 limits assumed): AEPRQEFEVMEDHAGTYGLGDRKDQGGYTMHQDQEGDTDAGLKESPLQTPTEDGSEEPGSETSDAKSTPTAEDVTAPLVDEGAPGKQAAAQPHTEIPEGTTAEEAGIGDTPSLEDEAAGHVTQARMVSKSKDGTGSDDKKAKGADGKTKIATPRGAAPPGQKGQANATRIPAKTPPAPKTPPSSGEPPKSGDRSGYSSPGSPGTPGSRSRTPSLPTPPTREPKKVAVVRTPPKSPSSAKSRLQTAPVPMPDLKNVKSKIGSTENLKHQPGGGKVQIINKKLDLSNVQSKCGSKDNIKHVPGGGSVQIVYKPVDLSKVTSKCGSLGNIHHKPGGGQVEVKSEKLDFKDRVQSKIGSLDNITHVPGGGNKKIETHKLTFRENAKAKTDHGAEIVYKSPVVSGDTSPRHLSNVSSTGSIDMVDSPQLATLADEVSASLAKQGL
The data set can be described thus: Tau-BiFC cell model: inhibition of tau protein aggregation. Format: cell-based. Put shortly: (§3)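 Tau-BiFC cells were exposed for 48 h to compound (1, 3, 10 μM for screening; 0.03–30 μM for dose-response) plus 30 μM Forskolin to induce aggregation. BiFC fluorescence was normalised to Forskolin-only minus untreated controls, with IC50 from nonlinear regression. Viability was Hoechst-stained nuclei counts relative to Forskolin-only wells.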

The nature of data set [2]: Liver microsome stability. Format: in vitro ADME, dog. Particulars: amount of substrate remaining; compound 1 μM, 30 minutes, 37° C., NADPH. The method, then:
The stability of liver microsomes due to the compounds prepared according to Examples 1 to 175 was confirmed. Specifically, four types of liver microsomes (human, dog, rat, and mouse, each 0.25 mg/mL), a 0.1 M phosphate buffer solution (pH 7.4), and each of the compounds at a concentration of 1 μM were mixed and pre-cultured at 37° C. for 5 minutes and further cultured at 37° C. for 30 minutes together with an NADPH generation system solution added thereto. Thereafter, the reaction was terminated by adding an acetonitrile solution containing an internal standard material (chloropropamide) and centrifuged for 5 minutes (14,000 rpm, 4° C.), and then a supernatant was injected into an LC-MS/MS system for analysis of substrate drugs to thereby evaluate metabolic stability due to 8 types of compounds.
The amount of the substrate remaining after the reaction was analyzed using the Shimadzu Nexera XR system and TSQ Vantage (Thermo). In an HPLC column, Kinetex XB-C18 (2.1 mm×100 mm, particle size of 2.6 μm; Phenomenex, USA) was used, and mobile phases were (A) distilled water containing 0.1% formic acid and (B) acetonitrile containing 0.1% formic acid. Analyst software (version 1.6.3) and Xcalibur (version 1.6.1) were used for data analysis.

The nature of data set [3]: Liver microsome stability. The note with it: amount of substrate remaining; compound 1 μM, 30 minutes, 37° C., NADPH. In kind it is in vitro ADME, mouse. Put shortly:
as §2

Data set [4] is described as follows: Liver microsome stability. The note with it: amount of substrate remaining; compound 1 μM, 30 minutes, 37° C., NADPH. Format: in vitro ADME, human. Put shortly: as §2
Another data set concerns Tau-BiFC cells. The data set can be described thus: Cell viability (cytotoxicity) in tau-BiFC cells, count of stained nuclei. In kind it is cell-based. The note with it: compound 10 μM; Forskolin-only group = 100% cell viability. Put shortly:
as §3

T4 sequence (P08684 whole entry): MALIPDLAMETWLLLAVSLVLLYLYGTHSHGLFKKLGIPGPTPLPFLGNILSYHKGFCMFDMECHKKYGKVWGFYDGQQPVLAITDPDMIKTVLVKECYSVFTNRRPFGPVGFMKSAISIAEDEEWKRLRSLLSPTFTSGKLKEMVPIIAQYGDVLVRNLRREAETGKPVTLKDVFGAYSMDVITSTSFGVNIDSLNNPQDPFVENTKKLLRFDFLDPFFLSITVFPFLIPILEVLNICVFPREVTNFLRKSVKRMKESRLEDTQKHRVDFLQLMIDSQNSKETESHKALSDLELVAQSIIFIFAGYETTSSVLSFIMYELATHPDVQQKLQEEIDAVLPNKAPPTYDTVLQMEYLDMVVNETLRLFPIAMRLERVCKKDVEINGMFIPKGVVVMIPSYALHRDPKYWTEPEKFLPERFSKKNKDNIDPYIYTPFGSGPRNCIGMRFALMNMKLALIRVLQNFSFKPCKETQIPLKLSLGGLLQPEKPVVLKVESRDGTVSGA
T1 sequence (P10635 whole entry): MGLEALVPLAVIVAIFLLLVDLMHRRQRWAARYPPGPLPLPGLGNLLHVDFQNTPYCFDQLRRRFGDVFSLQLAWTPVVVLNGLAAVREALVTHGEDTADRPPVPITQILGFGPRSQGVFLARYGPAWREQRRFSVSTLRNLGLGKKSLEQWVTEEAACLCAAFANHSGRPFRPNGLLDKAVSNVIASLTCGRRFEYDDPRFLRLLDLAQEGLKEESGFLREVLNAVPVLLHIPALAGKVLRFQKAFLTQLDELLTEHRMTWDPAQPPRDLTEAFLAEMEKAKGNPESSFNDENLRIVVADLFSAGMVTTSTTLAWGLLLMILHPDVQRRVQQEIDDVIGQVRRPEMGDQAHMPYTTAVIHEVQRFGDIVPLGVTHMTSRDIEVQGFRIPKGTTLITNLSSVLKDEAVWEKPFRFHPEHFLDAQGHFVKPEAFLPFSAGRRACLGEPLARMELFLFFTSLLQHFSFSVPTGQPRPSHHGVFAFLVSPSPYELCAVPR

As a reminder, the IC50 is the concentration that gives 50% inhibition. A low value points to higher potency. With `Cc1ccc(NC(=O)c2ccc(NN=C(C#N)C#N)cn2)cn1` [Compound 38, (6-(6-methylpyridin-3-ylcarbamoyl)pyridin-3-yl)carbonohydrazonoyl dicyanide], on CYP2D6, the CYP2D6 is listed as above 100. The compound further yielded a CYP2C9 on CYP2C9 of 49.1. The same compound returned a CYP2C19 on CYP2C19 of 83.0. In addition, the CYP3A4 on CYP3A4 is on record as 92.4. Further, the CYP1A2 at CYP1A2 was found to be 92.5. Also, the “Rat (%)” value in data set [1] is above 100%. Also, the remaining activity at 10 µM on tau protein (48 h, compound 10 μM, BiFC fluorescence, Forskolin-only group = 100% tau protein-aggregated state, read-out: Response (% @10 μM)) came out at 0%. Moreover, the IC50 against tau protein (Tau BiFC in cells, with Forskolin 30 μM, 48 hours) stood at 990 nM. In addition, the “Dog (%)” value in data set [2] amounted to 98.8%. Further, the “Mouse (%)” value in data set [3] is 96.4%. Also, the “Human (%)” value in data set [4] worked out at 99.1%. For the same compound, the “Cell viability (% @10 μM)” value with Tau-BiFC cells came out at 110.6%.
